Measurements published in ChEMBL document CHEMBL4422630, “Identification of substituted 5-membered heterocyclic compounds as potential anti-leukemic agents” (Eur J Med Chem, 2019).
Activity calls are given as the source filed them. The calls are words filed in the database; no cut-off is given here.

What was measured:
KOPN-8 [1] = assay: Induction of apoptosis in human KOPN8 cells assessed as late apoptotic cells level at 2 uM after 24 hrs by Annexin V and propidium iodide staining based flow cytometry (reference value: 96.4%); assay type: functional
SUP-B15 [2] = assay: Induction of apoptosis in human SUP-B15 cells assessed as late apoptotic cells level at 2 uM after 24 hrs by Annexin V and propidium iodide staining based flow cytometry (reference value: 13.5%); assay type: functional
SUP-B15 [3] = assay: Induction of apoptosis in human SUP-B15 cells assessed as late apoptotic cells level at 2 uM after 24 hrs by Annexin V and propidium iodide staining based flow cytometry (reference value: 83%); assay type: functional
KOPN-8 [4] = assay: Induction of apoptosis in human KOPN8 cells assessed as late apoptotic cells level at 2 uM after 24 hrs by Annexin V and propidium iodide staining based flow cytometry (reference value: 2%); assay type: functional
K562 = assay: Antiproliferative activity against human K562 assessed as reduction in cell viability after 72 hrs by CellTiter-Glo assay; assay type: functional, cell-based; settings: K562, 72 h
KOPN-8 [5] = assay: Antiproliferative activity against human KOPN8 assessed as reduction in cell viability after 72 hrs by CellTiter-Glo assay; assay type: functional, cell-based; settings: KOPN-8, 72 h
[6] = Protein binding in mouse plasma; assay type: ADME, cell-free; settings: read-out: PPB (converted)
[7] = Protein binding in human plasma; assay type: ADME, cell-free; settings: read-out: PPB (converted)
[8] = Half life in mouse plasma; assay type: ADME, cell-free
KOPN-8 [9] = assay: Induction of apoptosis in human KOPN8 cells assessed as decrease in cell viability at 5 uM after 24 hrs by Annexin V/propidium iodide staining-based flow cytometric analysis; assay type: functional
[10] = Half life in human microsomes; assay type: ADME, Microsome
[11] = Apparent permeability of compound form basolateral to apical side in human Caco2 cells; assay type: ADME, cell-based; settings: Caco-2
B-ALL [12] = assay: Antiproliferative activity against mouse B-ALL cells expressing wild type BCR-ABL assessed as reduction in cell viability after 72 hrs by CellTiter-Glo assay; assay type: functional, cell-based
[13] = Efflux ratio of apparent permeability across basolateral to apical side over apical to basolateral side in human Caco2 cells; assay type: ADME, cell-based; settings: Caco-2
[14] = Intrinsic clearance in human microsomes; assay type: ADME, Microsome
B-ALL [15] = assay: Induction of apoptosis in mouse B-ALL BCR-ABL double knockout cells assessed as increase in caspase 3/7 activity after 24 hrs by caspase-Glo 3/7 reagent based luminescence assay; assay type: functional, cell-based
MDA-MB-231 [16] = assay: Cytotoxicity against human MDA-MB-231 cells up to 30 uM after 24 hrs by propidium iodide staining-based fluorescence assay; assay type: functional, cell-based
[17] = Half life in mouse microsomes; assay type: ADME, Microsome
MV4-11 = assay: Antiproliferative activity against human MV411 assessed as reduction in cell viability after 72 hrs by CellTiter-Glo assay; assay type: functional, cell-based; settings: MV4-11, 72 h
SUP-B15 [18] = assay: Cell cycle arrest in human SUP-B15 cells assessed as accumulation of cells at G1/G0 phase at 5 uM after 24 hrs by propidium iodide staining-based flow cytometric analysis; assay type: functional
NALM-6 = assay: Antiproliferative activity against human NALM6 assessed as reduction in cell viability after 72 hrs by CellTiter-Glo assay; assay type: functional, cell-based; settings: NALM-6, 72 h
[19] = Intrinsic clearance in mouse microsomes; assay type: ADME, Microsome
SUP-B15 [20] = assay: Cytotoxicity in human SUP-B15 cells assessed as decrease in cell viability after 24 hrs by bis-AAF-RF110 dye based assay; assay type: functional
[21] = Half life in human plasma; assay type: ADME, cell-free
[22] = Permeability of compound at pH 7.4 by PAMPA; assay type: ADME
[23] = Apparent permeability of compound form apical to basolateral side in human Caco2 cells; assay type: ADME, cell-based; settings: Caco-2
MDA-MB-231 [24] = assay: Cytotoxicity against human MDA-MB-231 cells at 30 uM after 24 hrs by propidium iodide staining-based fluorescence assay; assay type: functional, cell-based
SUM149PT [25] = assay: Cytotoxicity against human SUM149 cells at 100 uM after 24 hrs by propidium iodide staining-based fluorescence assay relative to control; assay type: functional
SUP-B15 [26] = assay: Induction of apoptosis in human SUP-B15 cells assessed as decrease in cell viability at […] after 24 hrs by ApoTox-Glo triplex assay; assay type: functional, cell-based
SUP-B15 [27] = assay: Induction of apoptosis in human SUP-B15 cells assessed as decrease in cell viability at 5 uM after 24 hrs by Annexin V/propidium iodide staining-based flow cytometric analysis; assay type: functional
SUP-B15 [28] = assay: Induction of apoptosis in human SUP-B15 cells assessed as increase in caspase 3/7 activity after 24 hrs by caspase-Glo 3/7 reagent based luminescence assay; assay type: functional, cell-based
KOPN-8 [29] = assay: Cell cycle arrest in human KOPN8 cells assessed as accumulation of cells at G1/G0 phase at 5 uM after 24 hrs by propidium iodide staining-based flow cytometric analysis relative to control; assay type: functional
KOPN-8 [30] = assay: Induction of apoptosis in human KOPN8 cells assessed as late apoptotic cells level after 24 hrs by Annexin V and propidium iodide staining based flow cytometry (reference value: 2%); assay type: functional
SUP-B15 [31] = assay: Antiproliferative activity against human SUP-B15 assessed as reduction in cell viability after 72 hrs by CellTiter-Glo assay; assay type: functional, cell-based; settings: SUP-B15, 72 h
[32] = Half life in simulated gastric fluid; assay type: ADME
SUP-B15 [33] = assay: Induction of apoptosis in human SUP-B15 cells assessed as late apoptotic cells level after 24 hrs by Annexin V and propidium iodide staining based flow cytometry (reference value: 13.5%); assay type: functional
B-ALL [34] = assay: Antiproliferative activity against mouse B-ALL BCR-ABL double knockout cells assessed as reduction in cell viability after 72 hrs by CellTiter-Glo assay; assay type: functional, cell-based
[35] = Therapeutic index, ratio of EC50 for human BJ cells to EC50 for mouse B-ALL cells expressing wild type BCR-ABL; assay type: toxicity; settings: human BJ cells versus mouse B-ALL cells expressing wild type BCR-ABL; read-out: Ratio EC50
KOPN-8 [36] = assay: Cell cycle arrest in human KOPN8 cells assessed as accumulation of cells at G2/M phase at 5 uM after 24 hrs by propidium iodide staining-based flow cytometric analysis relative to control; assay type: functional
SUP-B15 [37] = assay: Induction of apoptosis in human SUP-B15 cells assessed as late apoptotic cells level after 24 hrs by Annexin V and propidium iodide staining based flow cytometry (reference value: 83%); assay type: functional
[38] = Permeability of compound at pH 7.4 assessed as drug retention by PAMPA; assay type: ADME
UoC-B1 = assay: Antiproliferative activity against human UOCB1 assessed as reduction in cell viability after 72 hrs by CellTiter-Glo assay; assay type: functional, cell-based; settings: UoC-B1, 72 h
KOPN-8 [39] = assay: Induction of apoptosis in human KOPN8 cells assessed as late apoptotic cells level after 24 hrs by Annexin V and propidium iodide staining based flow cytometry (reference value: 96.4%); assay type: functional
BJ = assay: Antiproliferative activity against human BJ assessed as cell viability after 72 hrs by CellTiter-Glo assay; assay type: functional, cell-based
SUP-B15 [40] = assay: Cell cycle arrest in human SUP-B15 cells assessed as accumulation of cells at G2/M phase at 5 uM after 24 hrs by propidium iodide staining-based flow cytometric analysis; assay type: functional
KOPN-8 [41] = assay: Cell cycle arrest in human KOPN8 cells assessed as increase in accumulation of cells at S phase at 5 uM after 24 hrs by propidium iodide staining-based flow cytometric analysis; assay type: functional
KOPN-8 [42] = assay: Cell cycle arrest in human KOPN8 cells at 5 uM after 24 hrs by propidium iodide staining-based flow cytometric analysis; assay type: functional
SUM149PT [43] = assay: Cytotoxicity against human SUM149 cells at 1 uM after 24 hrs by propidium iodide staining-based fluorescence assay relative to control; assay type: functional, cell-based

`CN[C@@H]1C[C@H]2O[C@@](C)([C@@H]1OC)n1c3ccccc3c3c4c(c5c6ccccc6n2c5c31)C(=O)NC4` [STAUROSPORINE] showed an Activity (KOPN-8 [1]) of 53.2%, an Activity (SUP-B15 [2]) of 52.3% and an Activity (SUP-B15 [3]) of 10%. The Activity (KOPN-8 [4]) was 45.2%.
Work on `Cc1ccc(S(=O)(=O)Cc2nc(-c3ccc(C(=O)NCc4cccnc4)cc3)oc2C)cc1` yielded an EC50 (K562) of 4600 nM, an EC50 (KOPN-8 [5]) of 1230 nM and a fraction unbound [6] of 0.023. The fraction unbound [7] was 0.042, the half-life [8] was greater than 48 h and the Activity (KOPN-8 [9]) was “Active”. It also gave a half-life [10] of 1.44 h, a Papp B→A [11] of 37.2 ×10⁻⁶ cm/s and an EC50 (B-ALL [12]) of 72 nM. The efflux ratio [13] was 3.5, the CLint scaled [14] was 14.5 mL/min/kg and the Activity (B-ALL [15]) was “inactive”. For the same molecule, the Activity (MDA-MB-231 [16]) was “inactive”, the half-life [17] was 1.2 h and the EC50 (MV4-11) was 3800 nM. The Activity (SUP-B15 [18]) was “inactive”, the EC50 (NALM-6) was 26 nM and the CLint scaled [19] was 47.5 mL/min/kg. The Activity (SUP-B15 [20]) was “Active”, the half-life [21] was greater than 48 h and the Papp ([22]; read-out: Peff) was 617 ×10⁻⁶ cm/s. The Papp A→B [23] was 10.6 ×10⁻⁶ cm/s, the Activity (MDA-MB-231 [24]) was “Active” and the Activity (SUM149PT [25]) was 50%. For the same molecule, the Activity (SUP-B15 [26]) was “Active”, the Activity (SUP-B15 [27]) was “Active” and the Activity (SUP-B15 [28]) was “Active”. It also gave an Activity (KOPN-8 [29]) of 10%, an Activity (KOPN-8 [30]) of 2.9% and an EC50 (SUP-B15 [31]) of 1100 nM. For the same molecule, the half-life [32] was greater than 48 h, the Activity (SUP-B15 [33]) was 7.6% and the EC50 (B-ALL [34]) was 61 nM. It also gave a selectivity ratio [35] of 34, an Activity (KOPN-8 [36]) of 12% and an Activity (SUP-B15 [37]) of 69.9%. The permeability [38] was 24.8%, the EC50 (UoC-B1) was greater than 55000 nM and the Activity (KOPN-8 [39]) was 95.8%. The EC50 (BJ) was 2490 nM, the Activity (SUP-B15 [40]) was “inactive” and the Activity (KOPN-8 [41]) was “Active”.
`CC(C)C(=O)Nc1ccc2oc(-c3ccc(C(C)(C)C)cc3)nc2c1` showed an EC50 (K562) of 8360 nM, an EC50 (KOPN-8 [5]) of 1110 nM and a half-life [8] greater than 48 h. For the same molecule, the Activity (KOPN-8 [9]) was “Active”, the half-life [10] was 0.86 h and the Papp B→A [11] was 2.26 ×10⁻⁶ cm/s. For the same molecule, the EC50 (B-ALL [12]) was 4650 nM, the efflux ratio [13] was 0.31 and the CLint scaled [14] was 24.3 mL/min/kg. For the same molecule, the Activity (B-ALL [15]) was “inactive”, the Activity (MDA-MB-231 [16]) was “inactive” and the half-life [17] was 3.41 h. The EC50 (MV4-11) was 603 nM, the Activity (SUP-B15 [18]) was “Active” and the EC50 (NALM-6) was 604 nM. The CLint scaled [19] was 16.8 mL/min/kg, the Activity (SUP-B15 [20]) was “Active” and the half-life [21] was greater than 48 h. The Peff [22] was 1916.4 ×10⁻⁶ cm/s, the Papp A→B [23] was 7.26 ×10⁻⁶ cm/s and the Activity (MDA-MB-231 [24]) was “Active”. The Activity (KOPN-8 [42]) was “inactive”, the Activity (SUP-B15 [26]) was “Active” and the Activity (SUP-B15 [27]) was “Active”. The Activity (SUP-B15 [28]) was “Active”, the Activity (KOPN-8 [30]) was 4.8% and the EC50 (SUP-B15 [31]) was 1320 nM. It also gave a half-life [32] greater than 48 h, an Activity (SUP-B15 [33]) of 6.3% and an EC50 (B-ALL [34]) greater than 43300 nM. For the same molecule, the selectivity ratio [35] was greater than 9, the Activity (SUP-B15 [37]) was 69.2% and the permeability [38] was 53.6%. The EC50 (UoC-B1) was greater than 43300 nM, the Activity (KOPN-8 [39]) was 94.4% and the EC50 (BJ) was greater than 43300 nM. For the same molecule, the Activity (SUM149PT [43]) was “Active” and the Activity (KOPN-8 [41]) was “Active”.
